Tests used:
Assay in all cases: In vitro cytotoxicity, Development Therapeutics Program
Format in all cases: cell-based
SNB-19 = conditions: SNB-19, CNS cancer; 1.0×10^−5 M
How it was run: (§1)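 Test compound added to cultured cancer cells at 1.0×10^−5 M, then inhibition measured in vitro under the US Development Therapeutics Program screen.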

EKVX = conditions: non-small cell lung cancer, 1.0×10^−5 M
How it was run: as §1

MOLT-4 = conditions: MOLT-4, leukemia; 1.0×10^−5 M
How it was run: as §1

HS 578T = conditions: breast cancer, 1.0×10^−5 M
How it was run: as §1

SF-268 = conditions: SF-268, CNS cancer; 1.0×10^−5 M
How it was run: as §1

NCl-H460 = conditions: NCl-H460, non-small cell lung cancer; 1.0×10^−5 M
How it was run: as §1

OVCAR-8 = conditions: OVCAR-8, ovarian cancer; 1.0×10^−5 M
How it was run: as §1

SW-620 = conditions: SW-620, colon cancer; 1.0×10^−5 M
How it was run: as §1

COLO 205 = conditions: COLO 205, colon cancer; 1.0×10^−5 M
How it was run: as §1

M14 = conditions: M14, melanoma; 1.0×10^−5 M
How it was run: as §1

LOX IMVI = conditions: melanoma, 1.0×10^−5 M
How it was run: as §1

SR = conditions: leukemia, 1.0×10^−5 M
How it was run: as §1

SK-MEL-5 = conditions: SK-MEL-5, melanoma; 1.0×10^−5 M
How it was run: as §1

NCl-H522 = conditions: NCl-H522, non-small cell lung cancer; 1.0×10^−5 M
How it was run: as §1

U251 = conditions: U251, CNS cancer; 1.0×10^−5 M
How it was run: as §1

NCI/ADR-RES = conditions: breast cancer, 1.0×10^−5 M
How it was run: as §1

NCl-H226 = conditions: NCl-H226, non-small cell lung cancer; 1.0×10^−5 M
How it was run: as §1

SNB-75 = conditions: SNB-75, CNS cancer; 1.0×10^−5 M
How it was run: as §1

K-562 = conditions: K-562, leukemia; 1.0×10^−5 M
How it was run: as §1

MDA-MB-435 = conditions: MDA-MB-435, breast cancer; 1.0×10^−5 M
How it was run: as §1

UACC-257 = conditions: UACC-257, melanoma; 1.0×10^−5 M
How it was run: as §1

NCI-H23 = conditions: NCI-H23, non-small cell lung cancer; 1.0×10^−5 M
How it was run: as §1

SF-539 = conditions: SF-539, CNS cancer; 1.0×10^−5 M
How it was run: as §1

HCT-116 = conditions: HCT-116, colon cancer; 1.0×10^−5 M
How it was run: as §1

HCT-15 = conditions: HCT-15, colon cancer; 1.0×10^−5 M
How it was run: as §1

DU-145 = conditions: DU-145, prostate cancer; 1.0×10^−5 M
How it was run: as §1

PC-3 = conditions: PC-3, prostate cancer; 1.0×10^−5 M
How it was run: as §1

SK-OV-3 = conditions: SK-OV-3, ovarian cancer; 1.0×10^−5 M
How it was run: as §1

SF-295 = conditions: SF-295, CNS cancer; 1.0×10^−5 M
How it was run: as §1

CCRF-CEM = conditions: leukemia, 1.0×10^−5 M
How it was run: as §1

HT29 = conditions: HT29, colon cancer; 1.0×10^−5 M
How it was run: as §1

HCC-2998 = conditions: HCC-2998, colon cancer; 1.0×10^−5 M
How it was run: as §1

OVCAR-5 = conditions: OVCAR-5, ovarian cancer; 1.0×10^−5 M
How it was run: as §1

CAK1-1 = conditions: CAK1-1, renal cancer; 1.0×10^−5 M
How it was run: as §1

UACC-62 = conditions: UACC-62, melanoma; 1.0×10^−5 M
How it was run: as §1

MALME-3M = conditions: melanoma, 1.0×10^−5 M
How it was run: as §1

BT-549 = conditions: BT-549, breast cancer; 1.0×10^−5 M
How it was run: as §1

MDA-MB-231/ATCC = conditions: breast cancer, 1.0×10^−5 M
How it was run: as §1

| SMILES | Cellular growth rate (%) (SNB-19) | Cellular growth rate (%) (EKVX) | Cellular growth rate (%) (MOLT-4) | Cellular growth rate (%) (HS 578T) | Cellular growth rate (%) (SF-268) | Cellular growth rate (%) (NCl-H460) | Cellular growth rate (%) (OVCAR-8) | Cellular growth rate (%) (SW-620) | Cellular growth rate (%) (COLO 205) | Cellular growth rate (%) (M14) | Cellular growth rate (%) (LOX IMVI) | Cellular growth rate (%) (SR) | Cellular growth rate (%) (SK-MEL-5) | Cellular growth rate (%) (NCl-H522) | Cellular growth rate (%) (U251) | Cellular growth rate (%) (NCI/ADR-RES) | Cellular growth rate (%) (NCl-H226) | Cellular growth rate (%) (SNB-75) | Cellular growth rate (%) (K-562) | Cellular growth rate (%) (MDA-MB-435) | other results |
| --- | --- | --- | --- | --- | --- | --- | --- | --- | --- | --- | --- | --- | --- | --- | --- | --- | --- | --- | --- | --- | --- |
| CC(=O)Nc1ccc2c(c1)C(=O)c1cc(NC(C)=O)ccc1C2=O [Compound 26, 2,7-Bis(acetamido)anthraquinone] | 94.40 | 95.28 | 96.96 | 133.05 | 113.68 | 109.29 | 99.85 | 103.21 | 119.85 | 105.11 | 99.05 | 3.61 | 108.87 | 93.56 | 95.14 | 114.26 | 104.51 | 106.91 | 98.54 | 109.48 | Cellular growth rate (%) (UACC-257): 26.97%; Cellular growth rate (%) (NCI-H23): 94.24%; Cellular growth rate (%) (SF-539): 103.04%; Cellular growth rate (%) (HCT-116): 101.91%; Cellular growth rate (%) (HCT-15): 93.93%; Cellular growth rate (%) (DU-145): 116.79%; Cellular growth rate (%) (PC-3): 102.73%; Cellular growth rate (%) (SK-OV-3): 101.12%; Cellular growth rate (%) (SF-295): 103.25%; Cellular growth rate (%) (CCRF-CEM): 99.77%; Cellular growth rate (%) (HT29): 107.23%; Cellular growth rate (%) (HCC-2998): 105.35%; Cellular growth rate (%) (OVCAR-5): 102.27%; Cellular growth rate (%) (CAK1-1): 105.10%; Cellular growth rate (%) (UACC-62): 101.24%; Cellular growth rate (%) (MALME-3M): 111.26%; Cellular growth rate (%) (BT-549): 93.29%; Cellular growth rate (%) (MDA-MB-231/ATCC): 103.99% |
| O=C1c2ccc(NC(=O)C3CC3)cc2C(=O)c2cc(NC(=O)C3CC3)ccc21 [Compound 32, 2,7-Bis(cyclopropanecarbonamido)anthraquinone] | 98.79 | 94.31 | 94.29 | 118.90 | 95.09 | 89.03 | 94.34 | 104.75 | 91.92 | 98.89 | 90.27 | 1.69 | 75.67 | 89.41 | 72.62 | 90.83 | 100.60 | 89.23 | 91.60 | 97.35 | Cellular growth rate (%) (UACC-257): 107.63%; Cellular growth rate (%) (NCI-H23): 95.85%; Cellular growth rate (%) (SF-539): 93.24%; Cellular growth rate (%) (HCT-116): 87.14%; Cellular growth rate (%) (HCT-15): 86.35%; Cellular growth rate (%) (DU-145): 98.83%; Cellular growth rate (%) (PC-3): 106.89%; Cellular growth rate (%) (SK-OV-3): 93.16%; Cellular growth rate (%) (SF-295): 86.60%; Cellular growth rate (%) (CCRF-CEM): 90.67%; Cellular growth rate (%) (HT29): 106.26%; Cellular growth rate (%) (HCC-2998): 132.37%; Cellular growth rate (%) (OVCAR-5): 112.01%; Cellular growth rate (%) (CAK1-1): 88.43%; Cellular growth rate (%) (UACC-62): 81.00%; Cellular growth rate (%) (MALME-3M): 91.76%; Cellular growth rate (%) (BT-549): 92.51%; Cellular growth rate (%) (MDA-MB-231/ATCC): 97.05% |

Reference: patent publication US20090253709A1 (NATIONAL DEFENSE MEDICAL CENTER, priority 2008, published 2009)
